The results in this text go back to ChEMBL document CHEMBL1151294, “Evaluation of limonoids against the murine P388 lymphocytic leukemia cell line” (J Nat Prod, 1983).

What all share (format): functional, organism-based
In experiment [1] the test system is P388. The experiment in a line: In vivo antitumor activity against mouse P388 cells at 0.5 to 8 mg.
The test system of experiment [2] is P388. Kind of experiment: In vivo antitumor activity against mouse P388 cells at 1.25 to 10 mg.
Experiment [3] concerns P388. The experiment in a line: In vivo antitumor activity against mouse P388 cells at 0.5 to 4 mg.
The test system of experiment [4] is P388. The experiment in a line: In vivo antitumor activity against mouse P388 cells at 5 to 20 mg.
Experiment [5] deals with P388. Kind of experiment: In vivo antitumor activity against mouse P388 cells at 1.25 to 2.5 mg.
Experiment [6] concerns P388. The experiment in a line: In vivo antitumor activity against mouse P388 cells at 0.75 to 12 mg.
The test system of experiment [7] is P388. Kind of experiment: In vivo antitumor activity against mouse P388 cells at 1.5 to 24 mg.
Experiment [8] has as its system P388. Kind of experiment: In vivo antitumor activity against mouse P388 cells at 0.37 to 6 mg.
In experiment [9] the test system is P388. Kind of experiment: In vivo antitumor activity against mouse P388 cells at 0.01 to 2.4 mg.
For experiment [10], the system named is P388. The experiment in a line: In vivo antitumor activity against mouse P388 cells at 3 to 24 mg.
Experiment [11] has as its system P388. Kind of experiment: In vivo antitumor activity against mouse P388 cells at 3.7 to 7.5 mg.
The test system of experiment [12] is P388. Kind of experiment: In vivo antitumor activity against mouse P388 cells at 0.25 to 2 mg.
In experiment [13] the test system is P388. Kind of experiment: In vivo antitumor activity against mouse P388 cells at 0.75 to 6 mg.
Experiment [14] relates to P388. The experiment in a line: In vivo antitumor activity against mouse P388 cells at 2.5 to 40 mg.
Experiment [15] concerns P388. The experiment in a line: In vivo antitumor activity against mouse P388 cells at 0.03 to 2 mg.
In experiment [16] the test system is P388. The experiment in a line: In vivo antitumor activity against mouse P388 cells at 2 to 200 mg.
Experiment [17] relates to P388. The experiment in a line: In vivo antitumor activity against mouse P388 cells at 1.5 to 12 mg.

The structures appear in SMILES notation. Calls of active or inactive are those of the source. The rule behind the calls is not given here.

In the case of `CC1(C)C(=O)CC[C@]2(C)[C@H]3CC[C@@]4(C)[C@H](c5ccoc5)OC(=O)[C@H]5O[C@]54[C@]3(C)C(=O)C[C@@H]12`, in the experiment on P388 [1], the result was inactive. On to `CC(=O)O[C@H]1[C@@H](OC(C)=O)[C@]2(C)[C@H](CC[C@]3(C)[C@H](c4ccoc4)C[C@@H]4O[C@]423)[C@@]2(C)C=CC(=O)OC(C)(C)[C@H]12`, for which the result with P388 [2] was inactive. The same measure, in the same setting: with `CC1(C)OC(=O)C=C[C@]2(C)[C@H]3CC[C@]4(C)[C@H](c5ccoc5)C[C@@H]5O[C@@]54[C@]3(C)C(=O)[C@H](O)[C@@H]12` the entry was “inactive”. For the compound `CC(=O)OC1=C2C(C)(C)O[C@H]3CC(=O)OC[C@@]23[C@H]2CC[C@@]3(C)[C@@H](c4ccoc4)OC(=O)[C@H]4O[C@]43[C@]2(C)C1=O`, the outcome with P388 [3] was inactive. Consider `CC(=O)O[C@@H]1C[C@H](O)[C@@]23CO[C@H](O)[C@]1(C)[C@@H]2C[C@@H](O)[C@]1(C)[C@@H]3C(=O)[C@H](O)[C@@]2(C)[C@H](c3ccoc3)C[C@H]3O[C@@]321`, for which the Activity entry with P388 [4] is “Toxic”. Besides, the outcome in the experiment with P388 [5] was inactive. For the compound `CC(=O)O[C@@H]1C[C@@H]2[C@](C)(C=C[C@@H](O)[C@]2(C)OC(C)=O)[C@H]2C(=O)[C@H](OC(C)=O)[C@@]3(C)C(c4ccoc4)C[C@H]4O[C@@]43[C@@]21C` (single isomer, unassigned), the result in the experiment on P388 [6] was inactive. Take `CC1(C)O[C@H]2CC(=O)OC[C@@]23C1=C(O)C(=O)[C@]1(C)[C@@H]3CC[C@@]2(C)[C@@H](c3ccoc3)OC(=O)[C@H]3O[C@]321`: in the experiment on P388 [3], the outcome was inactive.

Consider `CC1(C)C(=O)C=C[C@]2(C)[C@H]3CC[C@@]4(C)[C@H](c5ccoc5)OC(=O)[C@H]5O[C@]54[C@]3(C)[C@H](O)C[C@@H]12`, for which the result in the experiment on P388 [7] was inactive. As to `COC(=O)[C@@]1(C)CCC[C@]2(C)C3=C(CC[C@@H]12)C(=O)c1occc1CC3`, the result with P388 [8] was inactive. Consider `CC(=O)O[C@@H]1C[C@H](O)[C@@]23CO[C@H](O)[C@]1(C)[C@@H]2C[C@@H](O)[C@@]1(C)[C@@H]2C(=O)C[C@@H](c4ccoc4)[C@]2(C)CC(=O)[C@@H]13`, for which the outcome in the experiment with P388 [9] was inactive. Regarding `CC(=O)O[C@@H]1C[C@@]2(C)[C@H](c3ccoc3)C[C@H]3O[C@]32[C@]2(C)C(=O)C(O)=C3C(C)(C)C(=O)C=C[C@]3(C)C12` (stereo partly drawn), the outcome in the experiment with P388 [10] was inactive. Turning to `C=C1[C@@H]([C@@]2(C)[C@@H](OC(C)=O)CC(=O)O[C@](C)(COC(C)=O)[C@@H]2C(=O)OC)[C@@H](OC=O)[C@H](OC(=O)[C@H](O)[C@H](C)CC)[C@@]2(C)[C@H](c3ccoc3)CC(=O)[C@]12O`, the result with P388 [11] was inactive. For `CC1=C2CC(=O)O[C@H](c3ccoc3)[C@]2(C)CC[C@@H]1[C@@]12COC(=O)C[C@@H]1OC(C)(C)C2CC(=O)O` (stereo partly drawn), the outcome in the experiment with P388 [3] was inactive. On to `CC1(C)O[C@H]2CC(=O)OC[C@@]23[C@H]1CC(=O)[C@@]1(C)C2=CC(=O)O[C@H](c4ccoc4)[C@]2(C)CC[C@@H]13`, for which, in the experiment with P388 [3], the result was inactive. Turning to `C[C@]12C[C@H](c3ccoc3)OC(=O)[C@@H]1CC[C@@]13COC(=O)C1=CCC[C@@H]32`, the result with P388 [12] was inactive.

As for `CC1(C)O[C@@H](CC(=O)O)[C@]23CO[C@H](C(=O)[C@]4(C)[C@@H]2CC[C@@]2(C)[C@@H](c5ccoc5)OC(=O)[C@H]5O[C@]524)[C@H]13`, the outcome with P388 [13] was inactive. Regarding `CC1(C)O[C@H]2CC(=O)OC[C@]23[C@H]2CC[C@@]4(C)[C@@H](c5ccoc5)OC(=O)[C@H]5O[C@]54[C@]2(C)[C@@H](OC(=O)CCl)C[C@@H]13`, the result in the experiment with P388 [1] was inactive. For `CC1(C)C(=O)C=C[C@]2(C)[C@H]3CC[C@@]4(C)[C@H](c5ccoc5)OC(=O)[C@H]5O[C@]54[C@]3(C)C(=O)C[C@@H]12`, the outcome in the experiment with P388 [7] was inactive. In the case of `CC(=O)OC1[C@@H]2[C@@]3(C)C=C[C@@H](O)[C@](C)(OC(C)=O)[C@@H]3C[C@@H](OC(C)=O)[C@@]2(C)[C@]23O[C@@H]2CC(c2ccoc2)[C@]3(C)[C@H]1OC(=O)C(C)C` (single isomer, unassigned), the outcome in the experiment with P388 [6] was inactive. `CC(=O)O[C@@H]1C[C@H]2C(C)(C)C(=O)C=C[C@]2(C)[C@H]2CC[C@]3(C)C(=CC(=O)O[C@H]3c3ccoc3)[C@@]21C`: the result with P388 [14] was inactive. With `C[C@H]1CC[C@@]23COC(=O)C2=CCC[C@@H]3[C@@]12C[C@H](c1ccoc1)OC2=O`, the result with P388 [15] was inactive. `CC1(C)O[C@@H](CC(=O)O)[C@]23CO[C@H](C(=O)[C@]4(C)[C@@H]2CC[C@@]2(C)[C@H]([C@H]5CCOC5)OC(=O)[C@H]5O[C@]524)[C@H]13`: the outcome in the experiment on P388 [3] was inactive. On to `CC(C)(O)[C@@H]1CC(=O)[C@]2(C)[C@H](CC[C@@]3(C)[C@@H](c4ccoc4)OC(=O)[C@H]4O[C@]432)[C@@]1(C)/C=C\C(=O)O`, for which, in the experiment on P388 [13], the result was inactive.

With `C=C1[C@@H]2CC[C@@]3(C)[C@H](c4ccoc4)OC(=O)C[C@]13O[C@H]1CC(=O)C(C)(C)[C@H](CC(=O)OC)[C@]12C`, the result in the experiment on P388 [16] was inactive. In the case of `CC(=O)O[C@@H]1C[C@H](O)[C@@]23CO[C@H](O)[C@]1(C)[C@@H]2C[C@@H](O)[C@]1(C)[C@@H]3C(=O)C[C@@]2(C)[C@H](c3ccoc3)C[C@H]3O[C@]312`, the outcome in the experiment with P388 [12] was inactive. On to `CC1(C)O[C@H]2CC(=O)OC[C@]23[C@H]2CC[C@@]4(C)[C@@H](c5ccoc5)OC(=O)[C@H]5O[C@]54[C@]2(C)[C@@H](O)C[C@@H]13`, for which the outcome with P388 [13] was inactive. With `CC1(C)O[C@H]1[C@H]1C[C@@H]([C@@H]2CC[C@]3(C)C4=CC[C@H]5C(C)(C)C(=O)CC[C@]5(C)[C@H]4CC[C@@]23C)[C@H](O)O1`, the result with P388 [17] was inactive.
